# Experimental data published in patent US20210077668A1, “Highly Adherent Polymers for Orthopedic Device Coatings” (Clemson University Research Foundation, priority 2018, published 2021).
# Assays:
# Format in all cases: cell-based
# [1] = tested on: S. aureus; test: Maximum concentration of bacteria inactivated in the presence of 1 cm pieces of K-wires
# Method: Control K-wires were coated with monolaurin (ML), a natural antimicrobial agent active against S. aureus. Sample K-wires were coated with a copolymer formed from 20 mole percent glycidyl methacrylate, 60 mole percent ethylene glycol methacrylate and 20 mole percent ethylene glycol methacrylate available as OEGMA 950 from Sigma Aldrich. Some of the K-wires were pulled through Septa™, to simulate surgical insertion, and the antimicrobial activity was measured. Each example was replicated nine times.
# [2] = tested on: Methicillin-Resistant Staphylococcus Aureus (MRSA); test: Bacteria count versus time with coated K-wires (FIG. 2)
# [3] = tested on: S. aureus biofilms; test: S. aureus biofilm formation on 1 cm K-wire pieces, 48 hours (Example 3)
# Method: The performance of Copolymer A was compared to poly(lactide-co-glycolide) PLGA) with monolaurin as a model antimicrobial additive. S. aureus biofilms were grown by statically incubating a S. Aureus suspension with 1 cm K-wire pieces for 48 hours.
# [4] = tested on: S. aureus biofilms; test: Effectiveness against biofilms, K-wires incubated in S. aureus for 48 hours (FIG. 4); details: S. aureus 48 hours
# Method: Effectiveness of the inventive examples against biofilms was determined. Samples were prepared including a control K-wire (Control), a K-wire coated with ML only but not passed through a Septa™ (ML Coated), a sample treated with ML and passed through a Septa™ (ML Coated Septa), and inventive examples comprising ML with polymer, using OEGMA as the hydrophilic moiety (ML/POEGMA). Some of the inventive samples were passed through a Septa™ (ML/POEGMA Septa). The samples were all incubated in S. aureus for 48 hours. The results are provided graphically in FIG. 4.
# [5] = tested on: S. aureus; test: Bacteria count versus time with coated K-wires (FIG. 1)
# Method: Additional tests were done wherein bacterial count was monitored versus time for different bacteria. In FIG. 1 the bacteria count was measured for S. aureus versus time. The K-wire alone as a control was ineffective as expected.
smiles,measurement,setting,value
"CCCCCCCCCCCC(=O)OCC(O)CO (centres unmarked) [ML, monolaurin]",Maximum concentration of bacteria inactivated in the presence of 1 cm pieced of K-wires,"[1]; No Polymer after Septa, ML 1 mg/ml",0
same,Maximum concentration of bacteria inactivated in the presence of 1 cm pieced of K-wires,"[1]; No Polymer after Septa, ML 3 mg/ml",0
same,Maximum concentration of bacteria inactivated in the presence of 1 cm pieced of K-wires,"[1]; No Polymer after Septa, ML 5 mg/ml",0
same,Maximum concentration of bacteria inactivated in the presence of 1 cm pieced of K-wires,"[1]; No Polymer after Septa, ML 10 mg/ml",0
same,Maximum concentration of bacteria inactivated in the presence of 1 cm pieced of K-wires,"[1]; No Polymer, no Septa, ML 1 mg/ml",~6 × 10^6
same,Maximum concentration of bacteria inactivated in the presence of 1 cm pieced of K-wires,"[1]; No Polymer, no Septa, ML 3 mg/ml",~7 × 10^6
same,Maximum concentration of bacteria inactivated in the presence of 1 cm pieced of K-wires,"[1]; No Polymer, no Septa, ML 5 mg/ml",~6 × 10^6
same,Maximum concentration of bacteria inactivated in the presence of 1 cm pieced of K-wires,"[1]; No Polymer, no Septa, ML 10 mg/ml",~8 × 10^6
same,bacteria count versus time (course),[2],results similar to those observed for S. aureus
same,antimicrobial activity against biofilm formation,[3]; after pulling the wires through silicon rubber Septa caps,lost the antimicrobial activity
same,prevention of biofilm formation,"[3]; before pulling through Septa, S. aureus 48 hours",efficient in preventing biofilm formation
same,effectiveness against biofilms,[4]; not passed through a Septa,effective resistance
same,effectiveness against biofilms,[4]; passed through a Septa,removed or otherwise rendered ineffective
same,bacteria count versus time (course),[5],"immediate decrease in bacteria due to essentially immediate release of ML, however, the activity was not sustained"
